Molecules are shown by their SMILES.

Common to all, as to assay: ATPase assay, colorimetric phosphate release
Holding throughout (assay type): biochemical

For assay [1], the target named is T1, TbHsp70.c-Tbj2 (Trypanosoma brucei, UniProt Q383E9).
T1 construct: gene Tb11.01.3080; recombinant purified TbHsp70.c with recombinant co-chaperone Tbj2 at equal concentration; with Chaperone protein DnaJ, putative (type I J-protein Tbj2)
The settings on record: 30 µM methylene blue; 1 µM each protein; 600 µM ATP; 37 °C; activator. The text has this:
ATPase assay, colorimetric phosphate release on TbHsp70.c-Tbj2 | in the presence of Tbj2, methylene blue enhanced the ATPase activity of TbHsp70.c

Assay [2] has as its target T2, TbHsp70.c (Trypanosoma brucei, UniProt Q383E9).
T2 construct: gene Tb11.01.3080
The settings on record: 600 µM ATP; 37 °C; no Tbj2.

The target of assay [3] is T3, TcHsp70B (Trypanosoma cruzi, UniProt P05456).
T3 construct: gene HSP70
The settings on record: 600 µM ATP; 37 °C; no Tbj2.

In assay [4] the target is T4, TcHsp70B-Tbj2 (Trypanosoma cruzi, UniProt P05456).
T4 construct: gene HSP70; mixed species: recombinant T. cruzi TcHsp70B with recombinant T. brucei co-chaperone Tbj2; with Chaperone protein DnaJ, putative (type I J-protein Tbj2, Trypanosoma brucei)
The settings on record: 30 µM quercetin; 0.4 µM each protein; 600 µM ATP; 37 °C.

For assay [5], the target named is T2, TbHsp70.c. Particulars: 30 µM quercetin; 0.4 µM protein; 600 µM ATP; 37 °C; no Tbj2.
The target in assay [6] is T1, TbHsp70.c-Tbj2. The settings on record: 30 µM quercetin; 0.4 µM each protein; 600 µM ATP; 37 °C.
Assay [7] concerns the target T3, TcHsp70B. Particulars: 30 µM quercetin; 0.4 µM protein; 600 µM ATP; 37 °C; no Tbj2.

T3 sequence (P05456 whole entry): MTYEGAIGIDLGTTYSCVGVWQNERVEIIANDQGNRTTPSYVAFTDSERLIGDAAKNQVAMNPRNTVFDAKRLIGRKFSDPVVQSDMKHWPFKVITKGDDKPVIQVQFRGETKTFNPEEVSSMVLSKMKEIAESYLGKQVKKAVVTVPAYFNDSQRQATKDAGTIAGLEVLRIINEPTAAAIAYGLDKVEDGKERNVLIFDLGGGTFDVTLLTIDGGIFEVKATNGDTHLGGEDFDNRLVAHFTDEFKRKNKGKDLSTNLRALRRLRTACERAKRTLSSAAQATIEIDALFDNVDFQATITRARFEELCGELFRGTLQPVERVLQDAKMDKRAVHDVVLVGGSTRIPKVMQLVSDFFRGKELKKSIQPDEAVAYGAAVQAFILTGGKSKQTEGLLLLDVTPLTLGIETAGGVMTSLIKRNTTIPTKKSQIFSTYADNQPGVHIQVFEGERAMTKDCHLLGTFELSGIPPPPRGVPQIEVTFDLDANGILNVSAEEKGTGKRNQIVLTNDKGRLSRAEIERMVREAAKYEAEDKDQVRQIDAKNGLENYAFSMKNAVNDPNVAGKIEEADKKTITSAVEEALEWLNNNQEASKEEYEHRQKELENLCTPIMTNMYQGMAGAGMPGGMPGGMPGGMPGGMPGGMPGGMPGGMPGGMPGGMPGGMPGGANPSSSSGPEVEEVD
T2 sequence (Q383E9 1-676): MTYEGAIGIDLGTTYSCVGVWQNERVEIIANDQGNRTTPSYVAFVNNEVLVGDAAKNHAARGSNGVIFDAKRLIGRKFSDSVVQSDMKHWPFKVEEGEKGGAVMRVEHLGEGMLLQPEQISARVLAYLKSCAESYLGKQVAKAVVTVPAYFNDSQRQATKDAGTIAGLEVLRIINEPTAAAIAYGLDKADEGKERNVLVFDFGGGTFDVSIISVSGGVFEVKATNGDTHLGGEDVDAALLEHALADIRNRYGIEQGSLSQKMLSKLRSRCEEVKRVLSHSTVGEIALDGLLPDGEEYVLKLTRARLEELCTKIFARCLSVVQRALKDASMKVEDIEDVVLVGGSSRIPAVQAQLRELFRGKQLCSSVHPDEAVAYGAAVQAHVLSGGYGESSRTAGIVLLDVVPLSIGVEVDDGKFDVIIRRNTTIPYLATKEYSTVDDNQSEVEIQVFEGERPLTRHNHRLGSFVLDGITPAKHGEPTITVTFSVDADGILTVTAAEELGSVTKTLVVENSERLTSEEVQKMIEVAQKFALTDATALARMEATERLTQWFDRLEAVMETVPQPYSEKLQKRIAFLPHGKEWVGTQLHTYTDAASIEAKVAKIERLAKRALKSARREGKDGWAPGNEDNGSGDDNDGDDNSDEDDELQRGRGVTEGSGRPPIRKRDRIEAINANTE
T1 sequence (Q383E9 1-676): as above
T1 sequence (Q585V4 1-404 partner): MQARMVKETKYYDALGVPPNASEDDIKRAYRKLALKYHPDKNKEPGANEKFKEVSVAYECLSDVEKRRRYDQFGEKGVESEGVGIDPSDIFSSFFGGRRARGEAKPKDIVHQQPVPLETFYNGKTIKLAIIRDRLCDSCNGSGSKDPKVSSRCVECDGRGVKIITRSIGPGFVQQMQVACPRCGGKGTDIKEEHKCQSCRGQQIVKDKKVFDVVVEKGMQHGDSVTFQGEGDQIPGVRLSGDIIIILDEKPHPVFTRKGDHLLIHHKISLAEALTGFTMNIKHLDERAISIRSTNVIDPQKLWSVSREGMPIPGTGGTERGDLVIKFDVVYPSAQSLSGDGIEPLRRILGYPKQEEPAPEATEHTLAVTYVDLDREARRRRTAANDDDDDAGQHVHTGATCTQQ
T4 sequence (P05456 whole entry): as the sequence (P05456 whole entry) above
T4 sequence (Q585V4 1-404 partner): as the sequence (Q585V4 1-404 partner) above

For the compound `CN(C)c1ccc2nc3ccc(=[N+](C)C)cc-3sc2c1` [methylene blue], the “fold increase in Tbj2-stimulated ATPase at 30 μM” value in assay [1] stood at 1.5 fold.

In the case of `Nc1ncnc2c1ncn2[C@@H]1O[C@H](COP(=O)(O)OP(=O)(O)OP(=O)(O)O)[C@@H](O)[C@H]1O` [ATP], the “ATPase assay, colorimetric phosphate release” value in assay [2] and in assay [3] was “Inorganic phosphate released by ATP in the presence of each Hsp70 was monitored” throughout.

Turning to `O=c1c(O)c(-c2ccc(O)c(O)c2)oc2cc(O)cc(O)c12` [quercetin, 3,3′,4′,5,7-Pentahydroxyflavone], the “fold inhibition of Tbj2-stimulated ATPase at 30 μM” value in assay [4] came out at 1.4 fold; in assay [6] it was 9.3 fold. In addition, the “basal ATPase inhibition at 30 μM” value in assay [5] is recorded as “Our findings suggest that quercetin inhibits the basal ATPase activity of TbHsp70.c”. In assay [7], the “fold inhibition of basal ATPase at 30 μM” value worked out at 1.3 fold.

These data come from PMC8269394, “Characterization of an Atypical Trypanosoma brucei Hsp70 Demonstrates Its Cytosolic-Nuclear Localization and Modulation by Quercetin and Methylene Blue” (International Journal of Molecular Sciences, 2021).
